Patent US9447075B2, “Pyridazine derivatives as EAAT2 activators” (The Brigham and Women's Hospital, Inc., priority 2011, dated 2016)

Assays:
calcium channel L-type = test: In vitro side effect profiling: calcium channel L-type; format: binding; settings: 10 μM, duplicate
Experimental: (§1) To assess Compound 212320's biological activity and selectivity, we performed an in vitro side effect profiling study. Seventy-one targets were tested at 10 μM in duplicate. These targets include neurotransmitter related receptors (30), steroids (2), ion channels (6), second messenger (1), prostaglandins (3), growth factors/hormones (4), brain/gut peptides (13), enzymes (5) and cytochrome p450 (7). […] Additionally, we performed a protein kinase profiling study. Compound 212320 was tested at 1 and 10 μM against 288 kinases. […] These studies indicate that Compound 212320 has high specificity and low side-effects/toxicity potential.

EphA4 = EphA4 (Homo sapiens, UniProt P54764); test: Protein kinase profiling: EphA4; format: biochemical; settings: read-out: EphA4 inhibited
EphA4, sequence (P54764 20-986, species assumed): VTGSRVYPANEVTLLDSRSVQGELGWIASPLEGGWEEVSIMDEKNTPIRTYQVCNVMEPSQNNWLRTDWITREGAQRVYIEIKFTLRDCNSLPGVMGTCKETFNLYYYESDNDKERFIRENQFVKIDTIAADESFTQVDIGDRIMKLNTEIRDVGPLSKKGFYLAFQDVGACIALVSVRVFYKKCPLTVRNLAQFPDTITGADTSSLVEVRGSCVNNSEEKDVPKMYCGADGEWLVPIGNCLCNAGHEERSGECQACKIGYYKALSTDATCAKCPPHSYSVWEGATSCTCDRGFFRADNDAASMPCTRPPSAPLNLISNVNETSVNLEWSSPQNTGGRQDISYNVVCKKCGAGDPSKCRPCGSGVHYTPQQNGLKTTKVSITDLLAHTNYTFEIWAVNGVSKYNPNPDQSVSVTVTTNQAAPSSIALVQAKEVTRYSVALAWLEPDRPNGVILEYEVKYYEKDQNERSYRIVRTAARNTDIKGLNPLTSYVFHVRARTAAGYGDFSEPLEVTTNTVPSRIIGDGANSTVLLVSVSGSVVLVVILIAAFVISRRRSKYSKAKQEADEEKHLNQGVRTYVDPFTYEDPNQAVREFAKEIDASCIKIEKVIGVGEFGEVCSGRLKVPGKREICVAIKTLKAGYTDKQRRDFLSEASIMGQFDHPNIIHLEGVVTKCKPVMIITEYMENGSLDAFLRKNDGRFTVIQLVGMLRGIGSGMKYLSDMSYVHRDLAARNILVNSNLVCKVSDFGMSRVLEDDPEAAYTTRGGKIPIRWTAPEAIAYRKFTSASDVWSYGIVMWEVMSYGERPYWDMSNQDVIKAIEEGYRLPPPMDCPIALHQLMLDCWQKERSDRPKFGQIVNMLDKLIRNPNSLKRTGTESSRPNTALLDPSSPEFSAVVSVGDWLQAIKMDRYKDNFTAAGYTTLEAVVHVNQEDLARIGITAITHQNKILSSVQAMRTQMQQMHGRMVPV
Experimental: as §1

EAAT2 = test: [3H]glutamate uptake assay in PA-EAAT2 cells; format: cell-based, human; settings: PA-EAAT2 cells (FIG. 6D)
Experimental: Characterization and efficacy studies of a compound, Compound 212320 (FIG. 6A) is shown. […] In the absence of serum, PA-EAAT2 cells express low amounts of EAAT2 protein, although the recombinant EAAT2 mRNA are expressed (translational silencing); however, EAAT2 protein levels are increased when an activator is added to the culture (translational activation). This cell line was used for high-throughput screening to identify EAAT2 translational activators. To prioritize candidate compounds, we initially evaluated activation of EAAT2 protein in PA-EAAT2 cells. Promising compounds were further evaluated in primary dissociated neuron and astrocyte mixed cultures and then in mice. FIG. 6 presents the characterization of Compound 212320 in PA-EAAT2 cells. Compound 212320 increased EAAT2 protein levels in a dose—(FIG. 6B) and time—(FIG. 6C) dependent manner. Importantly, the induction occurred in a short amount of time (within 1-2 hr) and was sustained even up to 72 hr (data not show). Additionally, induction occurred at low nanomolar concentrations. […] (FIG. 6D).

[1] = tested on: APPSw/Ind transgenic mice; test: Alzheimer's disease model, Y-maze test; format: in vivo, mouse; settings: 40 mg/kg i.p. daily for 10 days, 7-month-old mice
Experimental: Compound 212320 was evaluated in APPSw/Ind transgenic mice, an Alzheimer's disease model. […] 7-month-old mice were treated with 40 mg/kg of Compound 212320 by intraperitoneal injection daily for 10 days and then evaluated the effects on short-term memory by Y-maze test. Compound 212320 restored short-term memory loss in APP mice after 10-day treatment (23 wild-type mice, 21 APP mice).
APPSw/Ind transgenic mice were treated with Compound 212320 at 40 mg/kg or vehicle intraperiotoneally beginning at 7 months after symptoms of memory loss are apparent. After daily treatment for 10 days, Y-maze was used to measure effects on short-term memory.

CYP1A2 = biological target: T1, CYP1A2 (Homo sapiens, UniProt P05177); test: In vitro side effect profiling: CYP1A2; format: in vitro ADME; settings: duplicate, read-out: inhibition on cytochrome p450 CYP1A2
T1 sequence (P05177 1-516): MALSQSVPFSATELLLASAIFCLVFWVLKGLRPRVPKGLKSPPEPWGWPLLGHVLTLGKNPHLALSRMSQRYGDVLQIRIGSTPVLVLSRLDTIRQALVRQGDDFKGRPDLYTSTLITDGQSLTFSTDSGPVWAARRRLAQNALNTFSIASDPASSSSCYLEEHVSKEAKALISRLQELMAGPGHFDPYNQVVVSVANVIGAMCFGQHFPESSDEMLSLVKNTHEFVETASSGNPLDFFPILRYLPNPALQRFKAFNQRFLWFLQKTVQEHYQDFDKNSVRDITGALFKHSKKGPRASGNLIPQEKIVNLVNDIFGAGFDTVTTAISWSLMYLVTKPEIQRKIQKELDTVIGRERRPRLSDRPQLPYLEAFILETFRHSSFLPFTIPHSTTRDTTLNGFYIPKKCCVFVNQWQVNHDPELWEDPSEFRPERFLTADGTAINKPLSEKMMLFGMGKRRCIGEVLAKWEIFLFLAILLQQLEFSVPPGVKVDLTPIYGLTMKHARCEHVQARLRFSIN
Experimental: as §1

Cc1ccccc1CSc1ccc(-c2ccccn2)nn1 [Compound 7-4]
inhibition on calcium channel L-type (calcium channel L-type): 43%
inhibition at 10 µM (EphA4): 44%
Glutamate uptake function (EAAT2): correlated to increased EAAT2 protein levels
Short-term memory loss (Y-maze test) [1]: restored
inhibition at 10 µM (CYP1A2): 69%
